From patent US20260092071A1, “COMPOUNDS AND COMPOSITIONS AS SMARCA2/4 DEGRADERS AND USES THEREOF” (REGENTS OF THE UNIVERSITY OF MICHIGAN, priority 2022, published 2026)

Assays:
SMARCA4 = SMARCA4 (Homo sapiens, UniProt P51532); test: HiBiT assay for protein degradation, Hela SMARCA4-HiBiT cells (A series); assay type: cell-based; design: fuse HiBiT to the carboxy terminus of SMARCA2 (Promega CS302365) or SMARCA4 (Promega CS3023225); host or cells: HeLa (CRISPR/Cas9 HiBiT knock-in); conditions: Hela SMARCA4-HiBiT cells, 24 hours treatment; for DC50: read-out: SMARC A4 Hela HiBit DC50; for Dmax: read-out: SMARC A4 Hela HiBit Dmax
In short: (§1)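 HeLa cells engineered by CRISPR/Cas9 to carry a HiBiT tag fused to the C-terminus of SMARCA4 (Promega CS3023225) were grown in DMEM supplemented with FBS and penicillin-streptomycin. After compound exposure, remaining SMARCA4 protein was quantified using the Nano-Glo® HiBiT Lytic Detection Assay (Promega N3050), and curves were fitted in GraphPad Prism.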

SMARCA2 = SMARCA2 (Homo sapiens, UniProt P51531); test: HiBiT assay for protein degradation, Hela SMARCA2-HiBiT cells (A series); assay type: cell-based; design: Hela cells were genetically modified via CRISPR/Cas9 to fuse HiBiT to the carboxy terminus of SMARCA2; host or cells: HeLa (CRISPR/Cas9 HiBiT knock-in); conditions: Hela SMARCA2-HiBiT cells, 24 hours treatment; for DC50: read-out: SMARC A2 Hela HiBit DC50; for Dmax: read-out: SMARC A2 Hela HiBit Dmax (%);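 as to SMARC A2 Hela HiBit Dmax (%): 24 h compound treatment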
In short: as §1, with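 “SMARCA2” for “SMARCA4”, “CS302365)” for “CS3023225)”, “treatment,” for “compound exposure,”, “with” for “using”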

Chain of SMARCA2 (P51531 whole entry): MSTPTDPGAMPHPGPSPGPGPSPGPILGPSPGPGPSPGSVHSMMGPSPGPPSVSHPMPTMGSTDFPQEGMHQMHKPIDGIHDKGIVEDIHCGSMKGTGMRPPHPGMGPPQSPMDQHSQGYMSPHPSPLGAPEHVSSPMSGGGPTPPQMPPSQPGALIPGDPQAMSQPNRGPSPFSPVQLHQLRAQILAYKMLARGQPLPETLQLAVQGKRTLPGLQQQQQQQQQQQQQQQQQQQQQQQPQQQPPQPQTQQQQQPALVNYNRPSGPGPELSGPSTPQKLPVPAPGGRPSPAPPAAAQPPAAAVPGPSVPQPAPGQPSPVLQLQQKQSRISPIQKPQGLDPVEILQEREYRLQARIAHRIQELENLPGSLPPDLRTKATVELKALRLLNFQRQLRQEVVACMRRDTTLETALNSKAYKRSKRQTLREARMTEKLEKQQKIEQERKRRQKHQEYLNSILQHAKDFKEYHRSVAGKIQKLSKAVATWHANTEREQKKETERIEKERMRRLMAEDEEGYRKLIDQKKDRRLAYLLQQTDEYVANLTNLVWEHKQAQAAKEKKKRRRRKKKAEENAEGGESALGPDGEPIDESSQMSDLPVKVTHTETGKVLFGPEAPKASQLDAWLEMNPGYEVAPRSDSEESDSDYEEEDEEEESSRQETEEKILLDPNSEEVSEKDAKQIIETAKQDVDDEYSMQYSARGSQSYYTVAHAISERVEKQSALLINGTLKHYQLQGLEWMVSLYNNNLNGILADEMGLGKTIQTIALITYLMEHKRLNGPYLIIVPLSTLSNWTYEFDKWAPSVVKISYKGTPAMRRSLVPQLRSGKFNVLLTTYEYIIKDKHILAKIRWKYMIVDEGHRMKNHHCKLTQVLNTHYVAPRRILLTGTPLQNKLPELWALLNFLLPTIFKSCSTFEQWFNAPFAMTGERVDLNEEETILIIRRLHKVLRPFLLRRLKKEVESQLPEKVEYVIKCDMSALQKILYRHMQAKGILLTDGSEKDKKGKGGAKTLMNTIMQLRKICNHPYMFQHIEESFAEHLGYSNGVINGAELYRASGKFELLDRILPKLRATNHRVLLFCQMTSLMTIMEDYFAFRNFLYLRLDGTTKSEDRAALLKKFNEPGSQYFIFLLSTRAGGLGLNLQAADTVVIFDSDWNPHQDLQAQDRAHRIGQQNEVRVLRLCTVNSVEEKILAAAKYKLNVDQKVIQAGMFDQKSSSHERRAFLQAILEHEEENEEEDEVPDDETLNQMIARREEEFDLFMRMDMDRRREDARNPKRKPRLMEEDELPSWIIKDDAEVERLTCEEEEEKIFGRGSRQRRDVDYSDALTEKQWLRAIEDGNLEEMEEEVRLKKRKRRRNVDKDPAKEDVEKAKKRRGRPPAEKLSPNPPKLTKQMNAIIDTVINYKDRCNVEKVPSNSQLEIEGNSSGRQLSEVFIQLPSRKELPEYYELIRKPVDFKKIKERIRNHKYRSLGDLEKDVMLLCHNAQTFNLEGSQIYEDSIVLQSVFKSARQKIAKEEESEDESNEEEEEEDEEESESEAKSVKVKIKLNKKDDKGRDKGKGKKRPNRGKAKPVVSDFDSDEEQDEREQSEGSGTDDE
Chain of SMARCA4 (P51532 whole entry, the tested form may be a part): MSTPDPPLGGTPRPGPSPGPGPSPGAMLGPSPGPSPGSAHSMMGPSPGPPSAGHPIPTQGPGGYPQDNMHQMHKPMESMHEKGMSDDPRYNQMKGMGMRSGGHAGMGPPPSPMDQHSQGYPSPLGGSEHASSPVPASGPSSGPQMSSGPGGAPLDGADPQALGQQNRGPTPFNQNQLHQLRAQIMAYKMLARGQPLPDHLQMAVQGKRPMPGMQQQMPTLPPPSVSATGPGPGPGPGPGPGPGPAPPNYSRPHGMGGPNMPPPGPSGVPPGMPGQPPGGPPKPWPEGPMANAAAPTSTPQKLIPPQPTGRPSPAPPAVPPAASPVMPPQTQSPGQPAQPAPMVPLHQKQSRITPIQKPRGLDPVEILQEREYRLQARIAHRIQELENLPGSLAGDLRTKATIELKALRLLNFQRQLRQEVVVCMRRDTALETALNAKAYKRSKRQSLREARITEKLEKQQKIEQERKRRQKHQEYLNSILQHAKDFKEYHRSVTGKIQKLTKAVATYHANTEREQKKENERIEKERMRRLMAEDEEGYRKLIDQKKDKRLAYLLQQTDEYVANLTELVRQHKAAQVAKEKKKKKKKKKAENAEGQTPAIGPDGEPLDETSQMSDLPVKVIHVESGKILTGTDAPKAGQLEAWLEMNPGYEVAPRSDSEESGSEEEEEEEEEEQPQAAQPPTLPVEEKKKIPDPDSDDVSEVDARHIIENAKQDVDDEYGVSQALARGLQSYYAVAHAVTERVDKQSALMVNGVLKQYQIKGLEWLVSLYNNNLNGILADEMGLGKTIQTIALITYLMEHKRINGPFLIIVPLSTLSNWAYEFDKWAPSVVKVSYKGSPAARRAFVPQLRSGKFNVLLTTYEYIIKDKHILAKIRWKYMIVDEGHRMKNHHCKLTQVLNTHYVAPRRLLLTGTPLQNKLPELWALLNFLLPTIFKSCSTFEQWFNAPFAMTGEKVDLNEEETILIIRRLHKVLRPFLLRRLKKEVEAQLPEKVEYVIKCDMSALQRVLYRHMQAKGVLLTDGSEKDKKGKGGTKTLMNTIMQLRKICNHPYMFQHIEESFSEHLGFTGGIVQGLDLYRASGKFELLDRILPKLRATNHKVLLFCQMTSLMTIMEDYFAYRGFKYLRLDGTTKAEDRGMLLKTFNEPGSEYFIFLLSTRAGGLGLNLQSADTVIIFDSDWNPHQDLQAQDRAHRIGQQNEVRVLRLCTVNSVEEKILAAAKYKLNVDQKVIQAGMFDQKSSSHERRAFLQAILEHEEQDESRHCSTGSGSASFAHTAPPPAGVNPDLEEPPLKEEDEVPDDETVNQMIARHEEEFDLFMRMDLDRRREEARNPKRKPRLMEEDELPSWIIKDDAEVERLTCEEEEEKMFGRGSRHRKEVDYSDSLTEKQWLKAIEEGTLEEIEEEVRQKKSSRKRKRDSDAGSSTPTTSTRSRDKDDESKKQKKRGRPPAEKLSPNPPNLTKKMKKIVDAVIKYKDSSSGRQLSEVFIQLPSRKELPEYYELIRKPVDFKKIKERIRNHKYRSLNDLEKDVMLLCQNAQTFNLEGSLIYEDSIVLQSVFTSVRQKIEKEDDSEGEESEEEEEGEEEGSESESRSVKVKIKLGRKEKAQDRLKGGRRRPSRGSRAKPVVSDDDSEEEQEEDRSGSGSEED

## Cc1ncsc1-c1ccc([C@H](C)NC(=O)[C@@H]2C[C@@H](O)CN2C(=O)[C@H](C2CCN(C(=O)CCCN3CCC(c4ccc5c(c4)-n4c(nc(=O)c6c(Cl)cccc64)C54CCCCC4)CC3)CC2)n2cc(C3CC3)nn2)cc1 [Compound A106, (2S,4R)-1-((S)-2-(1-(4-(4-(4′-chloro-5′-oxo-5′H-spiro[cyclohexane-1,7′-indolo[1,2-a]quinazolin]-10′-yl)piperidin-1-yl)butanoyl)piperidin-4-yl)-2-(4-cyclopropyl-1H-1,2,3-triazol-1-yl)acetyl)-4-hydroxy-N—((S)-1-(4-(4-methylthiazol-5-yl)phenyl)ethyl)pyrrolidine-2-carboxamide]
SMARCA4
  DC50: 100 to 1000 nM
  Dmax: < 50%
SMARCA2
  DC50: 100 to 1000 nM
  Dmax: 70 to 90%

## Cc1ncsc1-c1ccc([C@H](C)NC(=O)[C@@H]2C[C@@H](O)CN2C(=O)[C@H](C2CCN(C(=O)CCCCN3CCC(c4ccc5c(c4)-n4c(nc(=O)c6c(Cl)cccc64)C54CCCCC4)CC3)CC2)n2cc(C3CC3)nn2)cc1 [Compound A107, (2S,4R)-1-((S)-2-(1-(5-(4-(4′-chloro-5′-oxo-5′H-spiro[cyclohexane-1,7′-indolo[1,2-a]quinazolin]-10′-yl)piperidin-1-yl)pentanoyl)piperidin-4-yl)-2-(4-cyclopropyl-1H-1,2,3-triazol-1-yl)acetyl)-4-hydroxy-N—((S)-1-(4-(4-methylthiazol-5-yl)phenyl)ethyl)pyrrolidine-2-carboxamide]
SMARCA4
  DC50: > 1000 nM
  Dmax: < 50%
SMARCA2
  DC50: 100 to 1000 nM
  Dmax: 70 to 90%

## Cc1ncsc1-c1ccc([C@H](C)NC(=O)[C@@H]2C[C@@H](O)CN2C(=O)[C@H](C2CCN(C(=O)[C@H]3CC[C@H](CN4CCC(c5ccc6c(c5)-n5c(nc(=O)c7c(Cl)cccc75)C65CCCCC5)CC4)CC3)CC2)n2cc(C3CC3)nn2)cc1 [Compound A108, (2S,4R)-1-((S)-2-(1-((1r,4S)-4-((4-(4′-chloro-5′-oxo-5′H-spiro[cyclohexane-1,7′-indolo[1,2-a]quinazolin]-10′-yl)piperidin-1-yl)methyl)cyclohexane-1-carbonyl)piperidin-4-yl)-2-(4-cyclopropyl-1H-1,2,3-triazol-1-yl)acetyl)-4-hydroxy-N—((S)-1-(4-(4-methylthiazol-5-yl)phenyl)ethyl)pyrrolidine-2-carboxamide]
SMARCA4
  DC50: > 1000 nM
  Dmax: < 50%
SMARCA2
  DC50: < 10 nM
  Dmax: 70 to 90%

## Cc1ncsc1-c1ccc([C@H](C)NC(=O)[C@@H]2C[C@@H](O)CN2C(=O)[C@H](C2CCNCC2)n2cc([C@H]3CC[C@H](CN4CCC(c5ccc6c(c5)-n5c(nc(=O)c7c(Cl)cccc75)C65CCCCC5)CC4)CC3)nn2)cc1 [Compound A109, (2S,4R)-1-((S)-2-(4-((1r,4S)-4-((4-(4′-chloro-5′-oxo-5′H-spiro[cyclohexane-1,7′-indolo[1,2-a]quinazolin]-10′-yl)piperidin-1-yl)methyl)cyclohexyl)-1H-1,2,3-triazol-1-yl)-2-(piperidin-4-yl)acetyl)-4-hydroxy-N—((S)-1-(4-(4-methylthiazol-5-yl)phenyl)ethyl)pyrrolidine-2-carboxamide]
SMARCA4
  DC50: > 1000 nM
  Dmax: 50 to 69%
SMARCA2
  DC50: 100 to 1000 nM
  Dmax: 70 to 90%

## Cc1ncsc1-c1ccc([C@H](C)NC(=O)[C@@H]2C[C@@H](O)CN2C(=O)[C@H](C2CCN(C)CC2)n2cc([C@H]3CC[C@H](CN4CCC(c5ccc6c(c5)-n5c(nc(=O)c7c(Cl)cccc75)C65CCCCC5)CC4)CC3)nn2)cc1 [Compound A110, (2S,4R)-1-((S)-2-(4-((1r,4S)-4-((4-(4′-chloro-5′-oxo-5′H-spiro[cyclohexane-1,7′-indolo[1,2-a]quinazolin]-10′-yl)piperidin-1-yl)methyl)cyclohexyl)-1H-1,2,3-triazol-1-yl)-2-(1-methylpiperidin-4-yl)acetyl)-4-hydroxy-N—((S)-1-(4-(4-methylthiazol-5-yl)phenyl)ethyl)pyrrolidine-2-carboxamide]
SMARCA4
  DC50: > 1000 nM
  Dmax: 50 to 69%
SMARCA2
  DC50: 10 to 100 nM
  Dmax: > 90%

## CC(=O)N1CCC([C@@H](C(=O)N2C[C@H](O)C[C@H]2C(=O)N[C@@H](C)c2ccc(-c3scnc3C)cc2)n2cc([C@H]3CC[C@H](CN4CCC(c5ccc6c(c5)-n5c(nc(=O)c7c(Cl)cccc75)C65CCCCC5)CC4)CC3)nn2)CC1 [Compound A111, (2S,4R)-1-((S)-2-(1-acetylpiperidin-4-yl)-2-(4-((1r,4S)-4-((4-(4′-chloro-5′-oxo-5′H-spiro[cyclohexane-1,7′-indolo[1,2-a]quinazolin]-10′-yl)piperidin-1-yl)methyl)cyclohexyl)-1H-1,2,3-triazol-1-yl)acetyl)-4-hydroxy-N—((S)-1-(4-(4-methylthiazol-5-yl)phenyl)ethyl)pyrrolidine-2-carboxamide]
SMARCA4
  DC50: 10 to 100 nM
  Dmax: 70 to 90%
SMARCA2
  DC50: < 10 nM
  Dmax: > 90%

## Cc1ncsc1-c1ccc([C@H](C)NC(=O)[C@@H]2C[C@@H](O)CN2C(=O)[C@H](C2CCN(C3CCOCC3)CC2)n2cc([C@H]3CC[C@H](CN4CCC(c5ccc6c(c5)-n5c(nc(=O)c7c(Cl)cccc75)C65CCCCC5)CC4)CC3)nn2)cc1 [Compound A112, (2S,4R)-1-((S)-2-(4-((1r,4S)-4-((4-(4′-chloro-5′-oxo-5′H-spiro[cyclohexane-1,7′-indolo[1,2-a]quinazolin]-10′-yl)piperidin-1-yl)methyl)cyclohexyl)-1H-1,2,3-triazol-1-yl)-2-(1-(tetrahydro-2H-pyran-4-yl)piperidin-4-yl)acetyl)-4-hydroxy-N—((S)-1-(4-(4-methylthiazol-5-yl)phenyl)ethyl)pyrrolidine-2-carboxamide]
SMARCA4
  DC50: 100 to 1000 nM
  Dmax: 50 to 69%
SMARCA2
  DC50: < 10 nM
  Dmax: > 90%

## Cc1ncsc1-c1ccc([C@H](C)NC(=O)[C@@H]2C[C@@H](O)CN2C(=O)[C@H](C2CCN(C(=O)[C@@H]3COCCO3)CC2)n2cc([C@H]3CC[C@H](CN4CCC(c5ccc6c(c5)-n5c(nc(=O)c7c(Cl)cccc75)C65CCCCC5)CC4)CC3)nn2)cc1 [Compound A113, (2S,4R)-1-((S)-2-(1-((S)-1,4-dioxane-2-carbonyl)piperidin-4-yl)-2-(4-((1r,4S)-4-((4-(4′-chloro-5′-oxo-5′H-spiro[cyclohexane-1,7′-indolo[1,2-a]quinazolin]-10′-yl)piperidin-1-yl)methyl)cyclohexyl)-1H-1,2,3-triazol-1-yl)acetyl)-4-hydroxy-N—((S)-1-(4-(4-methylthiazol-5-yl)phenyl)ethyl)pyrrolidine-2-carboxamide]
SMARCA4
  SMARC A4 Hela HiBit DC50(nM): No fit
  Dmax: 70 to 90%
SMARCA2
  DC50: < 10 nM
  Dmax: > 90%

## Cc1ncsc1-c1ccc([C@H](Cn2cc(CN3CCC(c4ccc5c(c4)-n4c(nc(=O)c6c(Br)cccc64)C54CCCCC4)CC3)nn2)NC(=O)[C@@H]2C[C@@H](O)CN2C(=O)[C@@H](n2cc(C3CC3)nn2)C(C)(C)C)cc1 [Compound A114, (2S,4R)—N—((R)-2-(4-((4-(4′-bromo-5′-oxo-5′H-spiro[cyclohexane-1,7′-indolo[1,2-a]quinazolin]-10′-yl)piperidin-1-yl)methyl)-1H-1,2,3-triazol-1-yl)-1-(4-(4-methylthiazol-5-yl)phenyl)ethyl)-1-((S)-2-(4-cyclopropyl-1H-1,2,3-triazol-1-yl)-3,3-dimethylbutanoyl)-4-hydroxypyrrolidine-2-carboxamide]
SMARCA4
  DC50: 100 to 1000 nM
  Dmax: 70 to 90%
SMARCA2
  DC50: 10 to 100 nM
  Dmax: 70 to 90%

## Cc1ncsc1-c1ccc([C@H](Cn2cc(CN3CCC(c4ccc5c(c4)C4(CCCCC4)c4nc(=O)c6c(Br)cccc6n4-5)CC3)nn2)NC(=O)[C@@H]2C[C@@H](O)CN2C(=O)[C@@H](n2cc(C3CC3)nn2)C(C)(C)C)cc1 [Compound A115, (2S,4R)—N—((R)-2-(4-((4-(4′-bromo-5′-oxo-5′H-spiro[cyclohexane-1,7′-indolo[1,2-a]quinazolin]-9′-yl)piperidin-1-yl)methyl)-1H-1,2,3-triazol-1-yl)-1-(4-(4-methylthiazol-5-yl)phenyl)ethyl)-1-((S)-2-(4-cyclopropyl-1H-1,2,3-triazol-1-yl)-3,3-dimethylbutanoyl)-4-hydroxypyrrolidine-2-carboxamide]
SMARCA4
  DC50: 10 to 100 nM
  Dmax: > 90%
SMARCA2
  DC50: 10 to 100 nM
  Dmax: 70 to 90%
